Measured values published in PubChem BioAssay AID1959 (Broad Institute, 2009).
pEC50: −log10 of the molar value. Active and inactive are the calls of the source.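 Rule for the calls: active = growth-inhibition EC50 no more than tenfold above the top tested dose; inconclusive = flat fit between 30% and 70% inhibition, or unreliable fit; inactive = EC50 more than tenfold above the top tested dose.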

Test system: E. coli NEB5alpha growth, BacTiter-Glo luminescence, 4 h
Assay: antibacterial activity against E. coli NEB5alpha – luminescence, counter-screen for MEX-5/POS-1 RNA-binding inhibitor project, dose response (AID 1959);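 note: pUC19-transformed ampicillin-resistant cells grown in LB with ampicillin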

Structure (SMILES)	EC50	pEC50
CC(C)(C)c1ccc(C(=O)Nc2cccc3ncccc23)cc1	> 11 µM (inactive)	–
COC(=O)CCCC1=CC2=CC(=O)C(C)(OC(=O)c3ccco3)C(=O)C2=CO1 (stereo not given)	> 11 µM (inactive)	–
Nc1ccc2c(c1)-c1ccccc1S(=O)(=O)N2	> 11 µM (inactive)	–
COC(=O)c1ccc(-n2c(C)cc(C(=O)COC(=O)CC3Sc4ccccc4NC3=O)c2C)cc1 (stereo not given)	> 11 µM (inactive)	–
O=C(N/N=C/c1c(O)n(CCc2ccccc2)c(=O)[nH]c1=O)c1ccccc1O	> 11 µM (inactive)	–
CCOc1ccc(-n2c(O)c(/C=N/c3ccnn3Cc3ccncc3)c3ccccc3c2=O)cc1	> 11 µM (inactive)	–
COc1ccc(C2C(C#N)=C(N)OC3=C2C(=O)CC(C)(C)C3)cc1Cn1nc(C)c([N+](=O)[O-])c1C (stereo not given)	> 11 µM (inactive)	–
Cc1cc2c3c(c1)C1(C(=O)N3C(C)(C)CC2C)C(C#N)=C(N)OC2=C1C(=O)CC(C)(C)C2 (stereo not given)	> 11 µM (inactive)	–
O=C(Nc1ccccc1F)c1coc(=O)c(Br)c1	> 11 µM (inactive)	–
CC(=O)c1c(O)cc(O)cc1CC(=O)O	> 11 µM (inactive)	–
Cc1cc(/C=C2\SC(=S)N(Cc3ccco3)C2=O)c(C)n1-c1cccnc1	> 11 µM (inactive)	–
CC(=O)Nc1ccc(S(=O)(=O)NCc2nc(-c3cccc(C)c3)no2)cc1	> 11 µM (inactive)	–
CNc1ccc2nc3ccccc3[n+](C)c2c1	> 11 µM (inactive)	–
O=C(O)CCc1ccc(-c2ccccc2)n1-c1ccc(C(=O)O)cc1	> 11 µM (inactive)	–
CCn1nc(C)c(/C=C2\CCCC3=C2OC(N)=C(C#N)C3c2c(C)nn(CC)c2C)c1C (stereo not given)	> 11 µM (inactive)	–
CCN(CC)c1ccc(/C=C(/C#N)c2nc3ccccc3[nH]2)c(OC(C)C)c1	> 11 µM (inactive)	–
Oc1ccc(O)c(-c2cnns2)c1	> 11 µM (inactive)	–
COc1cc(OC)c(OC)cc1/C=C1\Oc2cc(OS(C)(=O)=O)ccc2C1=O	> 11 µM (inactive)	–
Cc1cccc(C)c1NC(=O)NN=C1CCCCC1	> 11 µM (inactive)	–
COc1ccc(Nc2nc3ccccc3nc2NS(=O)(=O)c2cccs2)cc1	> 11 µM (inactive)	–
CN1CCc2c(sc3c2C(=O)NC(c2ccccn2)N3)C1 (stereo not given)	> 11 µM (inactive)	–
O=C(CSCc1c(Cl)cccc1Cl)NCC1CCCO1 (stereo not given)	> 11 µM (inactive)	–
CCn1c(/C=C/c2c(C)[nH]c3ccccc23)nc2ccccc2c1=O	> 11 µM (inactive)	–
COc1ccc(C2CC(=O)C(C=NCCCO)=C(O)C2)cc1 (stereo not given)	> 11 µM (inactive)	–

Structure (SMILES)	EC50	pEC50
CCCn1c(O)c(CN2CCCCC2)c(C)c(C#N)c1=O	> 11 µM (inactive)	–
Cc1cc(/C=C2\C(=O)NC(=O)N(c3ccccc3F)C2=O)c(C)n1-c1cc(C(=O)O)cc(C(=O)O)c1	> 11 µM (inactive)	–
COC(=O)c1ccc(-n2c(C)ccc2-c2ccccc2)cc1	> 11 µM (inactive)	–
Cc1c(N=Cc2c(O)n(C)c(=O)c3ccccc23)c(=O)n(-c2ccccc2)n1C	> 11 µM (inactive)	–
COc1ccc(C(=O)c2sc3nc(C)cc(-c4cccs4)c3c2N)cc1	> 11 µM (inactive)	–
Oc1ccc(NC(=S)N=Nc2c(O)[nH]c3ccccc23)cc1	> 11 µM (inactive)	–
C/C(CCc1oc2ccc(Cl)cc2c1-c1ccc(C)o1)=N\O	> 11 µM (inactive)	–
CN1CC=C2C(C#N)=C(N)C(C#N)(C#N)C(c3ccncc3)C2C1 (stereo not given)	> 11 µM (inactive)	–
N#CC(C#N)=Cc1ccc(-c2ccc(S(=O)(=O)N=C(N)N)cc2)o1	> 11 µM (inactive)	–
CC1(C)CC(=O)C2=C(C1)OC(N)=C(C#N)C2c1ccc2c(c1)OCO2 (stereo not given)	> 5.6 µM (inactive)	–
COc1ccc(/C=c2\sc3nc(-c4ccccc4OC)nn3c2=O)c(OC)c1	> 11 µM (inactive)	–
COc1ccccc1NCC(=O)N/N=C/c1c(O)ccc2ccccc12	> 11 µM (inactive)	–
CCOC(=O)c1ccc2c(c1)C1C=CCC1C(C(=O)OCC)N2 (stereo not given)	> 11 µM (inactive)	–
COc1ccc(C2C(C#N)=C(/N=C/N3CCN(C)CC3)OC3=C2C(=O)CC(C)(C)C3)cc1OC (stereo not given)	> 11 µM (inactive)	–
COc1ccc(-c2cn[nH]c2-c2ccc(OCC(=O)NN)cc2O)cc1OC	> 11 µM (inactive)	–
COc1ccc(C2C(C#N)=C(N)OC3=C2C(=O)CC(C)(C)C3)cc1Cn1cc([N+](=O)[O-])cn1 (stereo not given)	> 11 µM (inactive)	–
OCCOc1ccc(C2=NCCO2)cc1	> 11 µM (inactive)	–
CCCSc1nnc(N2C(=O)C(O)=C(C(=O)c3ccco3)C2c2ccccc2F)s1 (stereo not given)	> 11 µM (inactive)	–
Cc1ccc(/C=C2/Sc3ccc(C(=O)N4CCC5(CC4)OCCO5)cc3NC2=O)cc1	> 11 µM (inactive)	–
CC(=O)Oc1cc2cccc(OC(C)=O)c(=O)c2c(OC(C)=O)c1OC(C)=O	> 11 µM (inactive)	–
Oc1c(Br)cc(Br)c(/C=N/n2c(-c3ccccc3)n[nH]c2=S)c1Br	> 11 µM (inactive)	–
Cc1cc([N+](=O)[O-])cc2c1NCC1CC=CC21 (stereo not given)	> 11 µM (inactive)	–
CCn1c(C)cc(=S)c2ccccc21	> 11 µM (inactive)	–
Clc1cccc(CSc2nc3ccncc3[nH]2)c1	> 11 µM (inactive)	–

Structure (SMILES)	EC50	pEC50
O=C(O)c1cc(-c2ccc(/C=C3\NC(=O)N(c4ccc(Cl)cc4)C3=O)o2)ccc1Cl	> 11 µM (inactive)	–
C=CCn1c(Cc2nc3ccccc3[nH]2)n[nH]c1=S	> 11 µM (inactive)	–
O=C(NCC1CCCO1)c1nn2c(C(F)(F)F)cc(-c3cc(Br)cs3)nc2c1Br (stereo not given)	> 11 µM (inactive)	–
O=C(/C=C(\O)c1ccccc1)C(=O)NNC(=O)c1ccccc1[N+](=O)[O-]	> 11 µM (inactive)	–
Cc1c(Cl)cccc1NC(=S)N1CCN(C(=O)C2CCCO2)CC1 (stereo not given)	> 11 µM (inactive)	–
Oc1ccc(-c2cnns2)c(O)c1	> 11 µM (inactive)	–
CCCCCCn1c(O)c(C=NCCCn2ccnc2)c(=O)[nH]c1=O	> 11 µM (inactive)	–
Cc1nnc(N2C(=O)C(O)=C(C(=O)c3ccco3)C2c2ccc(C(C)(C)C)cc2)s1 (stereo not given)	> 11 µM (inactive)	–
N=C1c2ccccc2CN1NC(=O)CC12CC3CC(CC(C3)C1)C2	> 11 µM (inactive)	–
CC1=CC(=C(C#N)c2nc3ccccc3s2)C=C(C)N1CC1CCCO1 (stereo not given)	> 11 µM (inactive)	–
COc1cc(NC(=O)CSc2nnc3ccc(-c4ccncc4)nn23)cc(OC)c1	> 11 µM (inactive)	–
Cc1ccc(C(=O)N/C(=C\c2ccc(-c3ccccc3[N+](=O)[O-])o2)C(=O)NCCCN(C)C)cc1	> 11 µM (inactive)	–
CCCN1CCc2cccc3c2[C@H]1Cc1ccc(O)c(O)c1-3	> 11 µM (inactive)	–
CN(C)c1ccc(/C=N/NC2=NS(=O)(=O)c3ccccc32)cc1	> 11 µM (inactive)	–
COc1ccc(NC(=O)c2sc3nc(-c4cccnc4)ccc3c2N)cc1OC	> 11 µM (inactive)	–
COc1ccc(C2C(C#N)=C(N)OC3=C2C(=O)CC(C)C3)c(OC)c1OC (stereo not given)	> 11 µM (inactive)	–
COc1ccc(C2C=C(c3ccc(Br)s3)Nc3ncnn32)cc1OC (stereo not given)	> 11 µM (inactive)	–
CN1C(=O)/C(=C\c2ccc(N3CCCCC3)o2)C(=O)NC1=S	> 11 µM (inactive)	–
COc1ccc(C2C(C#N)=C(N)OC3=C2C(=O)CC(C)(C)C3)cc1 (stereo not given)	> 11 µM (inactive)	–
Cc1cc(O)c(Oc2cc(C)cc(O)c2O)c(O)c1	> 11 µM (inactive)	–
Cc1cc(C)c2c(c1)C1C=CCC1C(c1ccc(S(=O)(=O)N3CCOCC3)cc1)N2 (stereo not given)	> 11 µM (inactive)	–
CCCN1CC=C2C(C#N)=C(N)C(C#N)(C#N)C(c3cc(OC)ccc3OC)C2C1 (stereo not given)	> 11 µM (inactive)	–
COc1ccccc1N1C(=O)NC(=O)/C(=C/c2ccc([N+](=O)[O-])s2)C1=O	> 11 µM (inactive)	–
N=C1/C(=C\c2ccc(SCc3ccccc3)o2)C(=O)N=C2SC(CC(=O)N3CCOCC3)=NN12	> 11 µM (inactive)	–

Structure (SMILES)	EC50	pEC50
Cc1c(CN2CCCCC2)c(O)n(CCCO)c(=O)c1C#N	> 11 µM (inactive)	–
NC(=O)c1c(NC(=O)c2c(F)cccc2F)sc2c1CCN(Cc1ccccc1)C2	> 11 µM (inactive)	–
Oc1[nH]c2ccc(Br)cc2c1N=Nc1nn[nH]n1	> 11 µM (inactive)	–
O=C(N/N=C/c1cc(Cl)cc([N+](=O)[O-])c1O)c1ccccc1NS(=O)(=O)c1cccs1	> 11 µM (inactive)	–
CCN(CC)S(=O)(=O)c1ccc(N=Cc2c(C)c(C#N)c(=O)n(C)c2O)cc1	> 11 µM (inactive)	–
CCOc1ccc(Br)cc1S(=O)(=O)NC(=O)c1ccccc1	> 11 µM (inactive)	–
CCOc1cc(/C=C/c2cccc[n+]2C)ccc1OCC(=O)Nc1ccc(C)cc1	> 11 µM (inactive)	–
COC(=O)c1c(C(=O)OC)c2n(c1C)Cc1ccccc1C2	> 11 µM (inactive)	–
Cc1cccc(-c2c3c(=O)n(C)c(=O)n(C)c3c3cccnn23)c1	> 11 µM (inactive)	–
Cc1cc(/C=C2\C(=O)NC(=O)N(c3ccccc3)C2=O)c(C)n1-c1ccc(C(=O)O)c(Cl)c1	> 11 µM (inactive)	–
Cc1ncc(/C=C2\C(=O)Nc3ccccc32)[nH]1	> 11 µM (inactive)	–
O=C1C=C(Nc2cccc3cccnc23)c2ccccc2C1=O	> 11 µM (inactive)	–
CN1CCc2cc(O)cc3c2[C@H]1Cc1ccc(O)c(O)c1-3	> 11 µM (inactive)	–
CCn1c(C)cc(/C=C2\C(=O)NC(=O)N(c3ccccc3C)C2=O)c1C	> 11 µM (inactive)	–
C=CC1=C(C(=O)O)N2C(=O)[C@@H](NC(=O)/C(=N\O)c3csc(N)n3)[C@H]2SC1 (stereo in doubt)	–	6.28
CC1(OC(=O)c2ccc(Cl)nc2)C(=O)C=C2C=C(c3ccsc3)OC=C2C1=O (stereo not given)	> 11 µM (inactive)	–
COc1ccc(NC(=O)C2Cc3ccccc3CN2C(=O)c2ccccc2)cn1 (stereo not given)	> 11 µM (inactive)	–
CCCCC1=CC2=CC(=O)C(C)(OC(=O)c3ccco3)C(=O)C2=CO1 (stereo not given)	> 11 µM (inactive)	–
CC(C)OC(=O)C(C#N)c1nc2ccccc2nc1N1CCCC1 (stereo not given)	> 11 µM (inactive)	–
COc1ccc(C2C(C(=O)c3ccco3)=C(O)C(=O)N2c2nnc(C)s2)cc1 (stereo not given)	> 11 µM (inactive)	–
COc1ccc(S(=O)(=O)Nc2ccc(O)c(Sc3ncn[nH]3)c2)cc1	> 11 µM (inactive)	–
O=C(N/N=C/c1c(O)n(Cc2ccc(F)cc2)c(=O)[nH]c1=O)c1ccccc1O	> 11 µM (inactive)	–
COc1ccc(C(=O)Nc2cc(C(C)=O)c(/C=C/N(C)C)oc2=O)cc1	> 11 µM (inactive)	–
